8 molecules from patent EP0171702A1, “Benzoxazinone derivatives, preparation and use” (BEECHAM GROUP PLC, priority 1984, dated 1986) can be followed below.

Where two headings read alike, the source gives them in different places.

Test [1] deals with spontaneously beating right atrium. Briefly: Isolated rat atria: rate of the spontaneously beating right atrium. The note with it: Rattus norvegicus, Krebs solution at 32°C; for Emax: maximal effect relative to isoprenaline maximum (isoprenaline = 1), read-out: Rate Intrinsic Activity; for EC50: molar concentration producing 50% of the compound's own maximum response. As to the method: (§1) Sprague-Dawley male rats (300-400g) are killed and the right and left atria dissected out independently and mounted on a combined tissue holder/electrode. […] The rate of the spontaneously beating right atrium (via an isometric transducer and a ratemeter) and the tension of the electrically paced left atrium (via an isometric transducer) are recorded on a M19 chart recorder.
(§2) After an initial stabilization period, the tissues are exposed to a maximal concentration of isoprenaline (10-^7M). The tissues are then washed several times until rate and tension return to baseline level. A dose-response curve to the test compound is then carried out.
(§3) Responses to each concentration of test compound are expressed as a percentage of the maximal responses to isoprenaline. Results are given in the form of (a) intrinsic activity (maximal effect of test compound with respect to isoprenaline maximum, i.e. isoprenaline intrinsic activity = 1) and (b) EC50 (the molar concentration at which the test compound produces 50% of its own maximum response).

The next test has as its system Female CFLP mice. Put plainly: Hypoglycaemic activity (subcutaneous glucose load, blood glucose curve). Type of test: in vivo. The note with it: glucose 1 g/kg subcutaneously, 2 hour period, compared with control mice given water. As to the method:
Female CFLP mice, weighing approximately 25 g, were fasted for 24 hours prior to the study. The compounds under study were administered orally as an aqueous solution to each of 6 mice. 30 minutes later a blood sample (20 ul) was obtained from the tail for the analysis of blood glucose. Immediately after taking this blood sample, glucose (1 g/kg body weight) was administered subcutaneously to each mouse. 6 mice were given water as a control. Blood samples were then obtained from each mouse at 30 minute intervals for 120 minutes.
Compounds that produced a significant (p<0.05) reduction of blood glucose, compared with control mice qiven water, at any time interval were considered active. The area under the blood glucose curve over the 2 hour period after the administration of the glucose was calculated for each compound and compared with the value for control animals.

The subject of a further test is Male Sprague-Dawley rats. Briefly: Effect on energy expenditure of rats. Format: in vivo. The settings on record: Rattus norvegicus, po, percentage of rate of rats dosed with water; for response vs control in vivo at 7.5 mg/kg: 7.5 mg/kg p.o.; for response vs control in vivo at 7.2 mg/kg: 7.2 mg/kg p.o.; for response vs control in vivo at 3.7 mg/kg: 3.7 mg/kg p.o.; for response vs control in vivo at 4.1 mg/kg: 4.1 mg/kg p.o.; for response vs control in vivo at 4 mg/kg: 4.0 mg/kg p.o.; for response vs control in vivo at 7.8 mg/kg: 7.8 mg/kg p.o. The protocol: Water was provided ad lib at all times. The compounds were administered orally in water to 3 or 4 rats. A further 4 rats were dosed orally with water. The rats were placed in boxes through which air was drawn and the oxygen content of the air leaving the boxes was measured. The energy expenditure of the rats was calculated for 3 hours and for 21 hours after dosing from the volume of air leaving the boxes and its oxygen content, following the principles described by J.B. de V. Weir, J. Physiol. (London) 109, 1-9 (1949). The results are expressed as a percentage of the rate of energy expenditure of the rats dosed with water.

In test [2] the test system is electrically paced left atrium. Put plainly: Isolated rat atria: tension of the electrically paced left atrium. The settings on record: Rattus norvegicus, Krebs solution at 32°C; for Emax: maximal effect relative to isoprenaline maximum (isoprenaline = 1), read-out: Tension Intrinsic Activity; for EC50: molar concentration producing 50% of the compound's own maximum response. The protocol: as §1, §2, §3

Another test has as its system conscious cats. Put plainly: Inotropic activity in conscious cats. The settings on record: for Peak dp/dt: maximal percentage change in dp/dt of left ventricular pressure over initial baseline level; for Peak HR: maximal percentage change in heart rate over initial baseline level; for dp/dt: HR: ratio of peak dp/dt change to peak HR change. Format: in vivo. The protocol: Male 3-4.5 kg cats, bred in-house are implanted with a polythene cannula in the left ventricle which is exte- riorised at the back of the neck by means of a small teflon valve. Recordings are made via a pressure transducer attached by means of a length of polyethylene tubing to the cat neck valve.
During an initial 1 hour stabilisation period, steady baseline recordings are obtained. The test compound contained in a gelatine capsule, is then administered orally. Recording is normally carried out for 6 hours post dosing.
The maximal percentage change in dp/dt over initial baseline level is used as the index of inotropic activity. Chronotropic activity is taken as the maximal percentage change in HR over the initial baseline level.

Setting [3] is: 3 h, 0-3h after dosing, read-out: Mean Energy Expenditure 0-3h.
[4] abbreviates: 21 h, 0-21h after dosing, read-out: Mean Energy Expenditure 0-21h.

Regarding `CC(COc1ccc2c(c1)NC(=O)CO2)NCC(O)c1cccc(Cl)c1` (stereo not shown) [Example 6, 6-[2-[2-(3-Chlorophenyl)-2-hydroxyethylamino]-2-methylethoxy]-2H-1,4-benzoxazin-3-(4H)-one], the Emax was determined as 66% in test [1] and 7% in test [2]. The EC50 was found to be 25 nM in test [1] and 300 nM in test [2]. For the same molecule, the “% Reduction in area under blood glucose curve” value (from here on “% Reduction in area”) with Female CFLP mice (10 μmol/kg orally) was determined as 29%. The response vs control in vivo at 7.5 mg/kg in the test on Male Sprague-Dawley rats (setting [3]) is 125%; in the test on Male Sprague-Dawley rats (setting [4]), 105%.

As to `CC(COc1ccc2c(c1)OCC(=O)N2)NCC(O)c1ccc(O)cc1` (stereo not shown) [Example 1, 7-[2-[2-(4-hydroxyphenyl)-2-hydroxyethylamino]-2-methylethoxy]-2H-1,4-benzoxazin-3-(4H)-one], in test [1], the Emax was determined as 97% and a half-maximal response (EC50) required 6.2 nM. Also, in the test with conscious cats (1 mg/kg p.o.), the Peak dp/dt was 230%, the “Peak HR” value was 46% and the “dp/dt: HR” value worked out at 5.0. Also, in test [2], the Emax turned out to be 97% and the EC50 was found to be 21 nM.

Turning to `CC(COc1ccc2c(c1)NC(=O)CO2)NCC(O)c1ccc(O)cc1` (stereo not shown) [Example 15, 6-[2-[2-(4-Hydroxyphenyl)-2-hydroxyethylamino]-2-methylethoxy]-2H-1,4-benzoxazin-3-(4H)-one], the values for the Emax in test [1] and in test [2] were 98% and 88%, respectively. For the same molecule, the EC50 in test [1] worked out at 44 nM; in test [2], 160 nM. Also, the results for the response vs control in vivo at 7.2 mg/kg with Male Sprague-Dawley rats (setting [3]) and with Male Sprague-Dawley rats (setting [4]) were 126% and 103%, respectively.

As for `CC(Cc1ccc2c(c1)NC(=O)CO2)NCC(O)COc1ccc(O)cc1` (stereo not shown) [Example 14, 6-[2-[3-(4-Hydroxyphenoxy)-2-hydroxypropylamino]-2-methylethyl]-2H-1,4-benzoxazin-3-(4H)-one], the results for the Emax in test [1] and in test [2] were 87% and 54%, respectively. In addition, the values for the EC50 in test [1] and in test [2] were 400 nM and 1400 nM, respectively. For the same molecule, the figures for the response vs control in vivo at 3.7 mg/kg with Male Sprague-Dawley rats (setting [3]) and with Male Sprague-Dawley rats (setting [4]) were 114% and 103%, respectively.

Consider `CC(COc1ccc2c(c1)NC(=O)CO2)NCC(O)c1ccc(Cl)c(Cl)c1` (stereo not shown) [Example 7, 6-[2-[2-(3,4-Dichlorophenyl)-2-hydroxyethylamino]-2-methylethoxy]-2H-1,4-benzoxazin-3-(4H)-one], for which the results for the Emax in test [1] and in test [2] were 50% and 14%, respectively. Moreover, the EC50 in test [1] came to 36 nM; in test [2] it was 45 nM. The “% Reduction in area” value in the test with Female CFLP mice (25 μmol/kg orally) came to 11%. Further, the values for the response vs control in vivo at 4.1 mg/kg in the test with Male Sprague-Dawley rats (setting [3]) and in the test with Male Sprague-Dawley rats (setting [4]) were 149% and 107%, respectively.

In the case of `CC(COc1ccc2c(c1)OCC(=O)N2)NCC(O)COc1ccc(O)cc1` (stereo not shown) [Example 3, 7-[2-[3-(4-Hydroxyphenoxy)-2-hydroxypropylamino]-2-methylethoxy]-2H-1,4-benzoxazin-3-(4H)-one], in test [1], the Emax was 72% and the EC50 was 5.5 nM. Besides, in the test with Female CFLP mice (2.5 μmol/kg orally), the “% Reduction in area” value worked out at 3%. In the test with conscious cats (0.2 mg/kg p.o.), the Peak dp/dt was determined as 23% and the “Peak HR” value was 0%. In addition, in the test with conscious cats (1 mg/kg p.o.), the Peak dp/dt is recorded as 95%, the “Peak HR” value was 13% and the “dp/dt: HR” value was found to be 7.3. In the test on Male Sprague-Dawley rats (setting [3]), the response vs control in vivo at 4 mg/kg amounted to 108%. The response vs control in vivo at 4 mg/kg with Male Sprague-Dawley rats (setting [4]) stood at 105%. In test [2], the Emax came out at 52% and the EC50 was found to be 21 nM.

Turning to `CC(COc1ccc2c(c1)OCC(=O)N2)NCC(O)c1cccc(Cl)c1` (stereo not shown) [Example 2, 7-[2-[2-(3-Chlorophenyl)-2-hydroxyethylamino]-2-methyl-ethoxy]-2H-1,4-benzoxazin-3-(4H)-one], the Emax in test [1] was 44%; in test [2], 18%. Also, the EC50 in test [1] was 55 nM; in test [2] it was 85 nM. Besides, the “% Reduction in area” value with Female CFLP mice (2.5 μmol/kg orally) came to 22%. Also, the results for the response vs control in vivo at 7.5 mg/kg in the test on Male Sprague-Dawley rats (setting [3]) and with Male Sprague-Dawley rats (setting [4]) were 128% and 110%, respectively.

In the case of `CC(COc1ccc2c(c1)NC(=O)CO2)NCC(O)COc1ccc(O)cc1` (stereo not shown) [Example 4, 6-[2-[3-(4-Hydroxyphenoxy)-2-hydroxypropylamino]-2-methylethoxy]-2H-1,4-benzoxazin-3-(4H)-one], in test [1], the Emax was 89% and the midpoint of the response, the EC50, lay at 14 nM. In the test with conscious cats (1 mg/kg p.o.), the Peak dp/dt was 50%, the “Peak HR” value is recorded as 36% and the “dp/dt: HR” value was found to be 1.4. Besides, in the test with Male Sprague-Dawley rats (setting [3]), the response vs control in vivo at 7.8 mg/kg was 128%. In the test with Male Sprague-Dawley rats (setting [4]), the response vs control in vivo at 7.8 mg/kg stood at 119%. In test [2], the Emax is 40% and a half-maximal response (EC50) required 50 nM.
